A word on the IC50: it is the point on the concentration scale where inhibition reaches its midpoint.

The text below walks through data of patent US20230091336A1, “CANNABINOID COMPOSITIONS” (priority 2020, published 2023).

Test [1] deals with thapsigargin (Tg)-induced Ca^2+ entry (SOCE) in Jurkat, U937, Luva, RBL-2H3, HL-60 and HEK-293 cells. In words: Thapsigargin-induced SOCE Fura-2 bioassay in various cell types (FIG. 1). Conditions: 1 μM, positive control, all tested cell types. Type of test: cell-based. Here is the method:
A Fura-2 calcium flux assay was used to determine cytoplasmic Ca^2+ levels. Briefly, cells were preloaded with Fura-2 AM, and fluorescence intensity in cells intensity was measured over time as a ratio of detected 510 nm fluorescent light emission intensity when excited by UV light at 340 nm and 380 nm wavelengths (f340/f380 ratio). Gadolinium (Gd^3+) is known to block SOCE at a concentration of 1 μM and was used at 1 μM as a positive control in these experiments (gray line).

The test system of test [2] is UUO mice. Conditions: background statement; cited from earlier work.
The test system of test [3] is kidney cell-line model. To be noted: background statement; cited from earlier work.
The subject of test [4] is SOCE in RBL-2H3 rat mast cells. The test is described as follows: SOCE Fura-2 bioassay in RBL-2H3 cells. Conditions: Rattus norvegicus, RBL-2H3, read-out: IC50 SOCE, purified cannabinoids, RBL-2H3; Table 5.
Protocol: (§1) Briefly, SOCE inhibition experiments were performed as described in Example 8, using each of the hemp extracts listed below and in Tables 6A and 6B at six concentrations each in each of the five cell types listed above to obtain dose response curves, as shown in FIGS. 11A-11SS. […] All data are averages of three independent runs±SEM. […] Hemp extracts used in FIGS. 11A-11SS are: Sour Space Candy (SSC), Hawaiian Haze (HH), Special Sauce (SS), Suver Haze (SH), White CBG (WCBG), Elektra (ELEK), Cherry Wine (CW), Lifter (LIF), Grape Soda (GS).
The subject of test [5] is SOCE in Luva human mast cells. In words: SOCE Fura-2 bioassay in Luva cells. To be noted: Homo sapiens, Mast cell, read-out: IC50 SOCE, purified cannabinoids, Luva; Table 5.
Protocol: as §1
The subject of test [6] is SOCE in Jurkat T cells. The test is described as follows: SOCE Fura-2 bioassay in Jurkat cells. Type of test: cell-based, human. Conditions: for IC50: Homo sapiens, read-out: IC50 SOCE, purified cannabinoids, Jurkat, Table 5; for combinatory effect on SOCE inhibition when paired with CBGA (isobolographic analysis): pairs expected to inhibit 50%, FIGS. 10A-10T.
In test [7] the test system is SOCE in THP-1 human monocytes. In words: SOCE Fura-2 bioassay in THP-1 cells. Conditions: for IC50: Homo sapiens, THP-1, read-out: IC50 SOCE, purified cannabinoids; for combinatory effect when paired with 2.2 μM CBGA: THP-1, 10 μM cannabinoid + 2.2 μM CBGA, FIG. 10Z.
Test [8] deals with SOCE in U937 human monocytes. The test is described as follows: SOCE Fura-2 bioassay in U937 cells. Conditions: Homo sapiens, U-937, read-out: IC50 SOCE, purified cannabinoids, U937; Table 5.
Protocol: as §1
The subject of test [9] is SOCE in HEK-293 human embryonic kidney cells. The test is described as follows: SOCE Fura-2 bioassay in HEK293 cells. Type of test: cell-based. Conditions: Homo sapiens, HEK293, read-out: IC50 SOCE, purified cannabinoids, HEK-293; Table 5.

As for `[Cl][Gd]([Cl])[Cl]` [Gd^3+, Gadolinium Chloride], the “effect on Tg-induced SOCE (f340/f380 ratio)” value in [1] is “inhibited SOCE”.

Regarding `c1ccc2c(c1)CCC[C@H]2Nc1nc2ccccc2[nH]1` [NS8593], the “progression of kidney damage and fibrosis in the UUO mouse model” value in test [2] was “ameliorates the progression of kidney damage and fibrosis”. For the same compound, the “cell proliferation in a kidney cell-line model” value in [3] is “inhibit cell proliferation”.

Regarding `CCCCCc1cc(O)c2c(c1)OC(C)(C)c1ccc(C)cc1-2` [CBN, 6,6,9-trimethyl-3-pentyl-6H-benzo[c]chromen-1-ol], the IC50 was 42.6 µM in [4]; 33.4 µM in [5]; 9.09 µM in test [6]; more than 50 µM in [7]; 45.3 µM in [8]; 26.9 µM in [9]. Moreover, the “combinatory effect on SOCE inhibition when paired with CBGA (isobolographic analysis)” value in [6] is reported as “Simple additive”. Moreover, the “combinatory effect when paired with 2.2 μM CBGA” value (“combinatory effect when paired” for short) in [7] was “simple additive agonists”.

Regarding `CCCCCc1cc(O)c(C/C=C(\C)CCC=C(C)C)c(O)c1` [CBG, (E)-2-(3,7-dimethylocta-2,6-dien-1-yl)-5-penlylbenzene-1,3-diol], the IC50 is more than 50 µM in [4]; 3.29 µM in [5]; 2.36 µM in test [6]; 33.6 µM in test [7]; 33.5 µM in test [8]; more than 50 µM in test [9]. Besides, the “combinatory effect on SOCE inhibition when paired with CBGA (isobolographic analysis)” value in [6] was “supra-additive”. Further, the “combinatory effect when paired” value in test [7] is “simple additive agonists”.

Take `CCCCCc1cc(O)c2c(c1)OC(C)(C)[C@@H]1CC=C(C)C[C@@H]21` [Δ8-THC, (6aR,10aR)-6,6,9-trimethyl-3-pentyl-6a,7,10,10a-tetrahydro-6H-benzo[c]chromen-1-ol]: the IC50 in [4] was more than 50 µM; in test [5], 39.7 µM; in test [6] it was 14.2 µM; in test [7] it was more than 50 µM; in [8], more than 50 µM; in test [9], more than 50 µM. Besides, the “combinatory effect on SOCE inhibition when paired with CBGA (isobolographic analysis)” value in [6] was “sub-additive”. Further, the “combinatory effect when paired” value in test [7] is “sub-additive”.
